Assay results: PMC12409542, “Synthesis and Computational Evaluation of N‑Acetyl-Derived Schiff Bases Incorporating 1,2,4-Triazoles for Dual Inhibition of Prostate Cancer Cells and Carbonic Anhydrases” (ACS Omega, 2025)

Tests used:
hCA I = hCA I (Homo sapiens, UniProt P00915); assay: hCA I inhibition, spectrophotometric esterase method (p-nitrophenyl acetate); assay type: biochemical; settings: p-nitrophenyl acetate substrate, 348 nm; for Ki: read-out: K i (μM) hCA I
Procedure: (§1) In this study, Sepharose-4B L-Tyrosine sulfanilamide affinity chromatography was employed to purify both CA isozymes in a single phase. A previous process was used to manufacture the column chemical material for affinity chromatography containing Sepharose-4B-L-Tyrosine-Sulfanilamide. As previously shown, the protein molecules’ flow in the column eluates was measured spectrophotometrically at 280 nm. […] The substrate used, p-nitrophenyl acetate, was enzymatically converted by both isoenzymes into p-nitrophenolate ions.

PNT1a cells = assay: Cell viability assay (CVDK-8), PNT1a cells; assay type: cell-based; settings: Homo sapiens, viability of PNT1a normal prostate epithelial cells, 24 h treatment
Procedure: (§2) In this research, the inhibitory effects of the compounds under investigation on cell viability were assessed using two distinct human cell lines: specifically, the DU145 cell line, representative of prostate cancer, and the PNT1a cell line, which serves as a model for normal human prostate epithelial cells. Cells were routinely cultured in RPMI-1640 medium supplemented with 10% fetal bovine serum, 1% penicillin/streptomycin (Gibco), and 1% L-glutamine. All cells were maintained in a 5% CO2 humidified incubator at 37 °C.
(§3) Effects of all compounds synthesized in this study on the viability of PNT1a and DU145 cells were analyzed using the Cell Viability Detection Kit-8 (CVDK-8, Ecotech Biotechnology, Erzurum, Turkey). In brief, cells were seeded at a concentration of 3 × 10^3 cells per well within 100 μL medium in 96 well plates. Then, cells were treated with compounds at concentrations of […] for 24 h. After treatment with the test compounds, the medium was removed and fresh RPMI-1640 medium containing 1/10 CVDK- 8 reagent was added to each well, and plates were incubated for 3 h at 37 °C protected from light. After the incubation period, optical densities were measured using Epoch spectrophotometer at 450 nm. For cell culture, experiments were performed in triplicate, and data were analyzed by t tests.

hCA II = hCA II (Homo sapiens, UniProt P00918); assay: hCA II inhibition, spectrophotometric esterase method (p-nitrophenyl acetate); assay type: biochemical; settings: p-nitrophenyl acetate substrate, 348 nm; for Ki: read-out: K i (μM) hCA II
Procedure: as §1

DU145 cells = assay: Cell viability assay (CVDK-8), DU145 cells; assay type: cell-based, human; settings: for effect on viability of cancer cells (in words): DU145, 1, 10 and 100 μM, 24 h; for IC50: Homo sapiens, DU-145, viability of DU145 cells, 24 h treatment, CVDK-8; for selectivity indices (SI) PNT1a IC50/DU145 IC50: ratio PNT1a IC50/DU145 IC50, 24 h
Procedure: as §2, §3

hCA I, sequence (P00915 whole entry): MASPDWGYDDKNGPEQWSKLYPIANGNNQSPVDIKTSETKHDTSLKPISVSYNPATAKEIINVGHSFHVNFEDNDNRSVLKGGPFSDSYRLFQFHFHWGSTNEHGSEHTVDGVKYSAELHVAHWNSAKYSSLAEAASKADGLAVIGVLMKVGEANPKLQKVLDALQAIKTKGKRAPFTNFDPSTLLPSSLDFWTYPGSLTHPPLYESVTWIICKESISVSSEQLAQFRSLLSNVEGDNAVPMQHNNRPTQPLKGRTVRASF

CC(=O)n1nc(C)n(N=Cc2cccc(OS(=O)(=O)c3ccc(C)cc3)c2)c1=O [6a, 3-[((1-Acetyl-3-methyl-5-oxo-1,5-dihydro-4H-1,2,4-triazol-4-yl)-imino)-methyl]-phenyl-4-methylbenzenesulfonate]
IC50 (hCA I): 11.4 µM
Ki (hCA I): 14 ± 1.15 µM
IC50 (PNT1a cells): > 100 µM
IC50 (hCA II): 15.3 µM
Ki (hCA II): 19.7 ± 2.48 µM
effect on viability of cancer cells (in words) (DU145 cells): decreased the viability of cancer cells in a dose-dependent manner
IC50 (DU145 cells): 73.2 ± 11.5 µM
selectivity indices (SI) PNT1a IC50/DU145 IC50 (DU145 cells): 6.74

CCc1nn(C(C)=O)c(=O)n1N=Cc1cccc(OS(=O)(=O)c2ccc(C)cc2)c1 [6b, 3-[((1-Acetyl-3-ethyl-5-oxo-1,5-dihydro-4H-1,2,4-triazol-4-yl)-imino)-methyl]-phenyl-4-methylbenzenesulfonate]
IC50 (hCA I): 13.7 µM
Ki (hCA I): 16.7 ± 2.14 µM
IC50 (hCA II): 18.4 µM
Ki (hCA II): 21.9 ± 3.48 µM

CC(=O)n1nc(Cc2ccccc2)n(N=Cc2cccc(OS(=O)(=O)c3ccc(C)cc3)c2)c1=O [6c, 3-[((1-Acetyl-3-benzyl-5-oxo-1,5-dihydro-4H-1,2,4-triazol-4-yl)-imino)-methyl]-phenyl-4-methylbenzenesulfonate]
IC50 (hCA I): 10.2 µM
Ki (hCA I): 13.1 ± 1.02 µM
IC50 (PNT1a cells): > 100 µM
IC50 (hCA II): 14.5 µM
Ki (hCA II): 17.3 ± 2.41 µM
effect on viability of cancer cells (in words) (DU145 cells): did not suppress the viability of cancer cells in low concentrations
IC50 (DU145 cells): > 100 µM
selectivity indices (SI) PNT1a IC50/DU145 IC50 (DU145 cells): 1.22

CC(=O)n1nc(Cc2ccc(C)cc2)n(N=Cc2cccc(OS(=O)(=O)c3ccc(C)cc3)c2)c1=O [6d, 3-[((1-Acetyl-3-p-methylbenzyl-5-oxo-1,5-dihydro-4H-1,2,4-triazol-4-yl)-imino)-methyl]-phenyl-4-methylbenzenesulfonate]
IC50 (hCA I): 7.12 µM
Ki (hCA I): 9.26 ± 0.88 µM
IC50 (PNT1a cells): > 100 µM
IC50 (hCA II): 10.6 µM
Ki (hCA II): 11.7 ± 1.01 µM
effect on viability of cancer cells (in words) (DU145 cells): did not suppress the viability of cancer cells in low concentrations
IC50 (DU145 cells): 49.8 ± 11.1 µM
selectivity indices (SI) PNT1a IC50/DU145 IC50 (DU145 cells): 2.28

CC(=O)n1nc(Cc2ccc(Cl)cc2)n(N=Cc2cccc(OS(=O)(=O)c3ccc(C)cc3)c2)c1=O [6e, 3-[((1-Acetyl-3-p-chlorobenzyl-5-oxo-1,5-dihydro-4H-1,2,4-triazol-4-yl)-imino)-methyl]-phenyl-4-methylbenzenesulfonate]
IC50 (hCA I): 12.3 µM
Ki (hCA I): 14.2 ± 1.1 µM
IC50 (PNT1a cells): > 100 µM
IC50 (hCA II): 16.8 µM
Ki (hCA II): 18.1 ± 2.47 µM
effect on viability of cancer cells (in words) (DU145 cells): decreased the viability of cancer cells in a dose-dependent manner
IC50 (DU145 cells): > 100 µM
selectivity indices (SI) PNT1a IC50/DU145 IC50 (DU145 cells): 5.23
